These results are taken from publication PMC7134380 (Journal of the American Chemical Society, 2020).

For this test, the target named is T1, human ornithine aminotransferase (hOAT) (Homo sapiens, UniProt P04181).
T1 sequence (P04181 26-439 limits assumed): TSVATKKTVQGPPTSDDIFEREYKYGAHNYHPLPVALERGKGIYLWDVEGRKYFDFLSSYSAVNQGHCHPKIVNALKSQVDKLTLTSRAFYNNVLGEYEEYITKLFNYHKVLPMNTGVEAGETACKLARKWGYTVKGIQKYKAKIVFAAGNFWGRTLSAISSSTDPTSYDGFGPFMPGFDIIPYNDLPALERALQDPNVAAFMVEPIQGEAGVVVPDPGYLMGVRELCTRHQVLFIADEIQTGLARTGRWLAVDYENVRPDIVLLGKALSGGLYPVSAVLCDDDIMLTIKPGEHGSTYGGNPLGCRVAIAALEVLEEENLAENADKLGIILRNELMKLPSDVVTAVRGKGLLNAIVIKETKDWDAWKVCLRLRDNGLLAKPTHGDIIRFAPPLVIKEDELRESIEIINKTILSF
In words: time-dependent inactivation kinetics. It is filed as biochemical. Conditions: read-out: hOAT / KI; covalent; mechanism-based inactivator (kinact/KI analysis).

As to `N[C@H]1C[C@@H](C(=O)O)C[C@@H]1F` [compound 1, (1R,3S,4S)-3-amino-4-fluorocyclopentane-1-carboxylic acid], the KI (inactivation) was 1400 ± 41 µM.
